The record followed here is US20240216375A1, “USE OF S[…] AND/OR ALPHA 1-ADRENERGIC RECEPTOR INHIBITOR IN PREPARING MEDICINE FOR TREATING DRY EYES” (Eye Institute of Shandong First Medical University …, priority 2022, published 2024).

The structures appear in SMILES notation.

What all share (format): in vivo
The subject of experiment [1] is mice treated with scopolamine (dry eye model). Put plainly: Corneal staining by fluorescein sodium in scopolamine-induced dry eye model mice. The note with it: intraperitoneal injection 100 mg/kg, 7th day of treatment. As to the method: (§1) Female C57BL/6 mice were selected for the experiment and placed in a perforated cage with a constant fan flow and a humidity <20%. The modeled mice with dry eye were induced by subcutaneous injection of scopolamine (0.5 mg/0.2 ml, 3 times a day) for 7 consecutive days (refer to the following literature: Wu Y, Bu J, Yang Y, et al. Therapeutic effect of MK2 inhibitor on experimental murine dry eye. Invest Ophthalmol Vis Sci. 2017; 58:4898-4907), the mice not treated and fed under a normal condition were used as a control, and the experimental mice had no corneal defects and neovascularization or conjunctival damage.
Staining by fluorescein sodium was used to observe damage of a corneal epithelial barrier function, observation was performed with a slit lamp, and photographing was performed. The result was shown in FIG. 2 (corneal staining by fluorescein sodium 7 days after modeling of mice treated with scopolamine). Compared with the mice in the control group, the mice in the scopolamine group were positive in staining by fluorescein sodium in scopolamine 7 days after modeling.
After 7 days of the treatment, staining by sodium fluorescein was used to observe damage of a corneal epithelial barrier function. The lacrimal glands of the mice were taken for qPCR detection. […]

Experiment [2] has the same test system. Put plainly: Expression levels of inflammatory factors of the lacrimal gland by qPCR in scopolamine-induced dry eye model mice. As to conditions: intraperitoneal injection 100 mg/kg, 7th day of treatment. As to the method:
as §1
After 7 days of modeling, the lacrimal glands and the corneas of the mice were taken to extract mRNA. Expression levels of inflammatory factors TNFα, TGFβ1, and IL-1β were detected by qPCR. The result was shown in FIG. 3 (expression levels of inflammatory factors of the lacrimal glands (left) and the corneas (right) 7 days after modeling of mice treated with scopolamine).
After 7 days of the treatment, staining by sodium fluorescein was used to observe damage of a corneal epithelial barrier function. The lacrimal glands of the mice were taken for qPCR detection.
On the 7th day of the treatment, staining by sodium fluorescein was used to observe damage of a corneal epithelial barrier function. The lacrimal glands of the mice were taken for qPCR detection.

For experiment [3] the test system is unchanged. Briefly: Tear secretion (phenol red cotton thread) in scopolamine-induced dry eye model mice. As to conditions: intraperitoneal injection 100 mg/kg once a day from 3rd day after modeling for 4 days, observed 5 and 7 days, vs normal saline.
In experiment [4] the test system is mice with diabetes. Briefly: Tear secretion in mice with diabetes (STZ type 1 diabetes model, diabetes-associated dry eye). The note with it: intraperitoneal injection 100 mg/kg once a day for 4 days, observed 5 and 7 days, vs normal saline. The procedure:
A phenol red cotton thread was used to detect the tear production of mice. One end of the phenol red cotton thread was placed at an inner ⅓ of the conjunctival sac of the lower eyelid, after 20 s, the phenol red cotton thread was taken out, and the length of the cotton thread wetted with tears was measured. The result was shown in FIG. 1 (tear secretion after modeling of mice treated with scopolamine).
Male C57BL/6 mice were selected, a type 1 diabetes model was established by intraperitoneal injection of streptozotocin (STZ) (the establishment method refers to the prior art: Lingling, Yang, Guohu, Di, Xia, & Qi, et al. Substance p promotes diabetic corneal epithelial wound healing through molecular mechanisms mediated via the neurokinin-1 receptor. Diabetes. 2014; 63: 4262-4274.), and the mice with blood glucose value greater than 300 mg/dL were screened for experiments after 1 month. The mice not treated and fed under a normal condition were used as a control, and the experimental mice had no corneal defects and neovascularization or conjunctival damage. The result was shown in FIG. 11 (tear secretion and ocular surface inflammation after modeling of mice with diabetes, tear secretion (left) and ocular surface inflammation (right)). […]

For the compound `NCCc1cc(O)c(O)cc1O` [6-hydroxydopamine], the “staining of ocular surface by fluorescein sodium” value in experiment [1] is “reduce staining of an ocular surface by fluorescein sodium”. For the same compound, the “expression levels of inflammatory factors TNFα and TGFβ1 of the lacrimal gland” value in experiment [2] was “decrease expression levels of inflammatory factors TNFα and TGFβ1”. The tear secretion result in experiment [3] and in experiment [4] was “significantly increase the tear secretion” throughout.
